Data on 7 molecules can be found in patent US10004701B2, “Methods and compositions for treating infection” (UNIVERSITY OF ROCHESTER, priority 2012, dated 2018).

Assay in all cases: AK assay 384-well format, Prestwick library screening
For one experiment, the system named is P. aeruginosa. It counts as cell-based, Pseudomonas aeruginosa. The conditions noted are these: Pseudomonas aeruginosa, 3 h, 50 μM final drug concentration.
The next experiment deals with K. pneumoniae. It counts as cell-based, Klebsiella pneumoniae. As to conditions: Klebsiella pneumoniae, 3 h, 50 μM final drug concentration.
Experiment [1] deals with S. aureus strain USA300-0114. It counts as cell-based, Staphylococcus aureus. As to conditions: Staphylococcus aureus, USA300, 3 h, 50 μM final drug concentration.
The next experiment relates to E. coli. It counts as cell-based, Escherichia coli. As to conditions: Escherichia coli, 3 h, 50 μM final drug concentration.
Experiment [2] has as its system A. baumannii strain 98-37-09. It counts as cell-based, Acinetobacter baumannii. The conditions noted are these: Acinetobacter baumannii, 983709, 3 h, 50 μM final drug concentration.
In a further experiment the test system is E. faecium. It counts as cell-based, Enterococcus faecium. The conditions noted are these: Enterococcus faecium, 3 h, 50 μM final drug concentration.
In a further experiment the test system is E. cloacae. It counts as cell-based, Enterobacter cloacae. As to conditions: Enterobacter cloacae, 3 h, 50 μM final drug concentration.
Where [3] appears, read: 384-well format, […], read-out: AK-based Prestwick Library Screening Results, P. aeruginosa (increase in extracellular AK activity).
[4] abbreviates: 384-well format, […], read-out: AK-based Prestwick Library Screening Results, K. pneumoniae (increase in extracellular AK activity).
The mark [5] stands for this setting: 384-well format, […], read-out: AK-based Prestwick Library Screening Results, S. aureus (increase in extracellular AK activity).
Where [6] appears, read: 384-well format, […], read-out: AK-based Prestwick Library Screening Results, E. coli (increase in extracellular AK activity).
[7] abbreviates: 384-well format, […], read-out: AK-based Prestwick Library Screening Results, A. baumannii (increase in extracellular AK activity).
Where [8] appears, read: 384-well format, […], read-out: AK-based Prestwick Library Screening Results, E. faecium (increase in extracellular AK activity).
Setting [9] is: 384-well format, […], read-out: AK-based Prestwick Library Screening Results, E. cloacae (increase in extracellular AK activity).
[10] abbreviates: planktonic P. aeruginosa, cutoff for positive-scoring molecules 3-fold increase, read-out: AK-based Prestwick Library Screening Results, P. aeruginosa (increase in extracellular AK activity).
The mark [11] stands for this setting: planktonic K. pneumoniae, cutoff for positive-scoring molecules 3-fold increase, read-out: AK-based Prestwick Library Screening Results, K. pneumoniae (increase in extracellular AK activity).
[12] abbreviates: planktonic S. aureus, cutoff for positive-scoring molecules 3-fold increase, read-out: AK-based Prestwick Library Screening Results, S. aureus (increase in extracellular AK activity).
Where [13] appears, read: planktonic E. coli, cutoff for positive-scoring molecules 3-fold increase, read-out: AK-based Prestwick Library Screening Results, E. coli (increase in extracellular AK activity).
[14] abbreviates: planktonic A. baumannii, cutoff for positive-scoring molecules 3-fold increase, read-out: AK-based Prestwick Library Screening Results, A. baumannii (increase in extracellular AK activity).
The mark [15] stands for this setting: planktonic E. faecium, cutoff for positive-scoring molecules 3-fold increase, read-out: AK-based Prestwick Library Screening Results, E. faecium (increase in extracellular AK activity).
Setting [16] is: planktonic E. cloacae, cutoff for positive-scoring molecules 3-fold increase, read-out: AK-based Prestwick Library Screening Results, E. cloacae (increase in extracellular AK activity).

Structures can show the parent of a compound that is named as a salt. Where two headings read alike, the source gives them in different places.

As to `CCN(CC)C(=S)SSC(=S)N(CC)CC` [Disulfiram], the fold induction at 50 µM in the experiment on P. aeruginosa (setting [3]) is 0.6; with K. pneumoniae (setting [4]), 0.6; in experiment [1] (setting [5]), 1.1; in the experiment on E. coli (setting [6]), 0.9; in experiment [2] (setting [7]), 1; in the experiment with E. faecium (setting [8]) it was 1. Besides, the fold induction at 50 µM with E. cloacae (setting [9]) is 0.7.
As to `C[C@]12N[C@H](Cc3ccccc31)c1ccccc12` [Dizocilpine maleate], the fold induction at 50 µM in the experiment with P. aeruginosa (setting [3]) came to 0.9; with K. pneumoniae (setting [4]), 0.7; in experiment [1] (setting [5]), 0.7; in the experiment on E. coli (setting [6]), 0.9; in experiment [2] (setting [7]), 0.8; in the experiment with E. faecium (setting [8]), 0.9. In addition, in the experiment with E. cloacae (setting [9]), the fold induction at 50 µM amounted to 1.
As for `CC(CCc1ccc(O)cc1)NCCc1ccc(O)c(O)c1` (stereo not shown) [Dobutamine hydrochloride], the fold induction at 50 µM in the experiment on P. aeruginosa (setting [10]) turned out to be 0.6; with K. pneumoniae (setting [11]) it was 0.8; in experiment [1] (setting [12]) it was 0.1; in the experiment with E. coli (setting [13]), 0.8; in experiment [2] (setting [14]), 0.7; in the experiment on E. faecium (setting [15]), 0.8. Moreover, in the experiment on E. cloacae (setting [16]), the fold induction at 50 µM amounted to 1.1.
`O=c1[nH]c2ccccc2n1CCCN1CCC(n2c(=O)[nH]c3cc(Cl)ccc32)CC1` [Domperidone]: the fold induction at 50 µM came to 0.6 in the experiment with P. aeruginosa (setting [10]); 0.6 in the experiment with K. pneumoniae (setting [11]); 0.8 in experiment [1] (setting [12]); 0.6 in the experiment with E. coli (setting [13]); 0.7 in experiment [2] (setting [14]); 0.9 in the experiment with E. faecium (setting [15]). For the same molecule, the fold induction at 50 µM with E. cloacae (setting [16]) worked out at 0.8.
Take `CCN[C@H]1C[C@H](C)S(=O)(=O)c2sc(S(N)(=O)=O)cc21` [Dorzolamide hydrochloride]: the fold induction at 50 µM is 0.9 in the experiment with P. aeruginosa (planktonic P. aeruginosa, positive cutoff 3-fold increase, read-out: AK-based Prestwick library screening result, P. aeruginosa (fold increase in extracellular AK activity)); 1.1 in the experiment on K. pneumoniae (planktonic K. pneumoniae, positive cutoff 3-fold increase, read-out: AK-based Prestwick library screening result, K. pneumoniae (fold increase in extracellular AK activity)); 1 in experiment [1] (planktonic S. aureus, positive cutoff 3-fold increase, read-out: AK-based Prestwick library screening result, S. aureus (fold increase in extracellular AK activity)); 1.1 in the experiment with E. coli (planktonic E. coli, positive cutoff 3-fold increase, read-out: AK-based Prestwick library screening result, E. coli (fold increase in extracellular AK activity)); 1.2 in experiment [2] (planktonic A. baumannii, positive cutoff 3-fold increase, read-out: AK-based Prestwick library screening result, A. baumannii (fold increase in extracellular AK activity)); 2.3 in the experiment with E. faecium (planktonic E. faecium, positive cutoff 3-fold increase, read-out: AK-based Prestwick library screening result, E. faecium (fold increase in extracellular AK activity)). For the same molecule, in the experiment on E. cloacae (planktonic E. cloacae, positive cutoff 3-fold increase, read-out: AK-based Prestwick library screening result, E. cloacae (fold increase in extracellular AK activity)), the fold induction at 50 µM is 1.3.
Turning to `CN(C)CC/C=C1\c2ccccc2CSc2ccccc21` [Dosulepin hydrochloride], the fold induction at 50 µM with P. aeruginosa (setting [10]) was 0.5; in the experiment with K. pneumoniae (setting [11]) it was 0.5; in experiment [1] (setting [12]), 0.5; in the experiment on E. coli (setting [13]), 0.6; in experiment [2] (setting [14]), 0.5; with E. faecium (setting [15]) it was 0.9. The fold induction at 50 µM with E. cloacae (setting [16]) was found to be 0.5.
For the molecule `COc1cc2nc(N3CCN(C(=O)C4COc5ccccc5O4)CC3)nc(N)c2cc1OC` (stereo not shown) [Doxazosin mesylate], the fold induction at 50 µM turned out to be 1.1 in the experiment with P. aeruginosa (cutoff for positive-scoring molecules 3-fold increase, read-out: AK-based Prestwick Library Screening Results, P. aeruginosa (fold increase in extracellular AK activity)); 0.9 with K. pneumoniae (cutoff for positive-scoring molecules 3-fold increase, read-out: AK-based Prestwick Library Screening Results, K. pneumoniae (fold increase in extracellular AK activity)); 1.2 in experiment [1] (cutoff for positive-scoring molecules 3-fold increase, read-out: AK-based Prestwick Library Screening Results, S. aureus (fold increase in extracellular AK activity)); 1.4 in the experiment on E. coli (cutoff for positive-scoring molecules 3-fold increase, read-out: AK-based Prestwick Library Screening Results, E. coli (fold increase in extracellular AK activity)); 1.3 in experiment [2] (cutoff for positive-scoring molecules 3-fold increase, read-out: AK-based Prestwick Library Screening Results, A. baumannii (fold increase in extracellular AK activity)); 1.1 with E. faecium (cutoff for positive-scoring molecules 3-fold increase, read-out: AK-based Prestwick Library Screening Results, E. faecium (fold increase in extracellular AK activity)). Also, the fold induction at 50 µM in the experiment with E. cloacae (cutoff for positive-scoring molecules 3-fold increase, read-out: AK-based Prestwick Library Screening Results, E. cloacae (fold increase in extracellular AK activity)) was determined as 1.5.
